Laboratory results taken from patent US20140303182A1, “PHARMACEUTICALLY ACCEPTABLE SALTS OF QUINOLINONE COMPOUNDS HAVING IMPROVED PHARMACEUTICAL PROPERTIES” (NOVARTIS AG, priority 2003, published 2014).
Where “and” joins values, the source holds several entries; their conditions need not be identical. Equal values may be shown once. Where a name gives a salt, the structure may show the parent alone. Read-outs that look alike come from different tables or passages of the source.

What was measured:
Crystallinity by XRPD = assay type: physicochemical
Procedure: XRPD analyses were carried out on a Shimadzu XRD-6000 X-ray powder diffractometer using Cu Kα radiation. The instrument is equipped with a fine focus X-ray tube. The tube voltage and amperage were set to 40 kV and 40 mA, respectively. The divergence and scattering slits were set at 1° and the receiving slit was set at 0.15 mm. Diffracted radiation was detected by a NaI scintillation detector. A theta-two theta continuous scan at 3°/minute (0.4 seconds/0.02° step) from […] was used.

[1] = Aqueous equilibrium solubility and pH at saturation; assay type: physicochemical; settings: water, 24 hours at 22° C., HPLC, free base equivalent
[2] = Chemical stability, solid state (HPLC); settings: solid state
[3] = Hygroscopicity, moisture sorption/desorption; assay type: physicochemical
Compaction studies = assay type: physicochemical; settings: 200 mg at 5000 psi; for Tensile strength of compact: SC = Strong Cobb
[4] = Crystal morphology, polarized light microscope; assay type: physicochemical; settings: 10× and 40× magnification
[5] = Chemical stability, solution state (HPLC); assay type: physicochemical
[6] = 30° C./60% Relative humidity, listed as Sulphate
[7] = 40° C./70% Relative humidity, listed as Sulphate

Compound: CN1CCN(c2ccc3nc(-c4c(N)c5c(F)cccc5[nH]c4=O)[nH]c3c2)CC1 [Bis-Acetate, 4-Amino-5-fluoro-3-[6-(4-methylpiperazin-1-yl)-1H-benzimidazol-2-yl]-1H-quinolin-2-one]
- Crystallinity (Crystallinity by XRPD): mixture of crystalline
- Crystallinity (Crystallinity by XRPD; listed as bis-acetate): mixture of crystalline and amorphous material
- Solubility [1]: 31.9 mg FB/mL

Compound: CN1CCN(c2ccc3nc(-c4c(N)c5c(F)cccc5[nH]c4=O)[nH]c3c2)CC1 [Bis-Glycinate, 4-Amino-5-fluoro-3-[6-(4-methylpiperazin-1-yl)-1H-benzimidazol-2-yl]-1H-quinolin-2-one]
- Solubility [1]: 0.11 mg FB/mL

Compound: CN1CCN(c2ccc3nc(-c4c(N)c5c(F)cccc5[nH]c4=O)[nH]c3c2)CC1 [Bis-Lactate, 4-Amino-5-fluoro-3-[6-(4-methylpiperazin-1-yl)-1H-benzimidazol-2-yl]-1H-quinolin-2-one]
- Area % at Time = 0 ([2]; 30° C./60% Relative humidity): 98.71 Area %
- Area % at Time = 6 weeks ([2]; 30° C./60% Relative humidity): 98.64 Area %
- Area % at Time = 0 ([2]; 40° C./70% Relative humidity): 98.99 Area %
- Area % at Time = 6 weeks ([2]; 40° C./70% Relative humidity): 97.92 Area %
- Crystallinity (Crystallinity by XRPD): mixture of crystalline
- Crystallinity (Crystallinity by XRPD; listed as bis-lactate): mixture of crystalline and amorphous material
- Solubility [1]: 304 mg FB/mL

Compound: CN1CCN(c2ccc3nc(-c4c(N)c5c(F)cccc5[nH]c4=O)[nH]c3c2)CC1 [Bis-mesylate, 4-Amino-5-fluoro-3-[6-(4-methylpiperazin-1-yl)-1H-benzimidazol-2-yl]-1H-quinolin-2-one]
- Area % at Time = 0 ([2]; 30° C./60% Relative humidity): 99.01 Area %
- Area % at Time = 6 weeks ([2]; 30° C./60% Relative humidity): 98.12 Area %
- Area % at Time = 0 ([2]; 40° C./70% Relative humidity): 98.78 Area %
- Area % at Time = 6 weeks ([2]; 40° C./70% Relative humidity): 98.35 Area %
- Crystallinity (Crystallinity by XRPD): mixture of crystalline
- Crystallinity (Crystallinity by XRPD; listed as bis-mesylate): crystalline

Compound: CN1CCN(c2ccc3nc(-c4c(N)c5c(F)cccc5[nH]c4=O)[nH]c3c2)CC1 [BisHCl, 4-Amino-5-fluoro-3-[6-(4-methylpiperazin-1-yl)-1H-benzimidazol-2-yl]-1H-quinolin-2-one]
- Solubility [1]: 42 mg FB/mL

Compound: CN1CCN(c2ccc3nc(-c4c(N)c5c(F)cccc5[nH]c4=O)[nH]c3c2)CC1 [Glycinate, 4-Amino-5-fluoro-3-[6-(4-methylpiperazin-1-yl)-1H-benzimidazol-2-yl]-1H-quinolin-2-one]
- Solubility [1]: 0.0638 mg FB/mL

Compound: CN1CCN(c2ccc3nc(-c4c(N)c5c(F)cccc5[nH]c4=O)[nH]c3c2)CC1 [Hemi-malate, 4-Amino-5-fluoro-3-[6-(4-methylpiperazin-1-yl)-1H-benzimidazol-2-yl]-1H-quinolin-2-one]
- Crystallinity (Crystallinity by XRPD): crystalline
- Solubility [1]: 6.39 mg FB/mL

Compound: CN1CCN(c2ccc3nc(-c4c(N)c5c(F)cccc5[nH]c4=O)[nH]c3c2)CC1 [Hydrochloride, 4-Amino-5-fluoro-3-[6-(4-methylpiperazin-1-yl)-1H-benzimidazol-2-yl]-1H-quinolin-2-one]
- Solubility [1]: 26.3 mg FB/mL

Compound: CN1CCN(c2ccc3nc(-c4c(N)c5c(F)cccc5[nH]c4=O)[nH]c3c2)CC1 [Maleate, 4-Amino-5-fluoro-3-[6-(4-methylpiperazin-1-yl)-1H-benzimidazol-2-yl]-1H-quinolin-2-one]
- Solubility [1]: 0.866 mg FB/mL

Compound: CN1CCN(c2ccc3nc(-c4c(N)c5c(F)cccc5[nH]c4=O)[nH]c3c2)CC1 [Mono-acetate, 4-Amino-5-fluoro-3-[6-(4-methylpiperazin-1-yl)-1H-benzimidazol-2-yl]-1H-quinolin-2-one]
- Crystallinity (Crystallinity by XRPD): amorphous
- Crystallinity (Crystallinity by XRPD; listed as Acetate): mixture of crystalline
- Crystallinity (Crystallinity by XRPD; listed as acetate salt): amorphous
- Solubility [1]: 84.4 mg FB/mL
- Solubility ([1]; listed as Acetate): 15.4 mg FB/mL

Compound: CN1CCN(c2ccc3nc(-c4c(N)c5c(F)cccc5[nH]c4=O)[nH]c3c2)CC1 [Mono-citrate, 4-Amino-5-fluoro-3-[6-(4-methylpiperazin-1-yl)-1H-benzimidazol-2-yl]-1H-quinolin-2-one]
- Crystallinity (Crystallinity by XRPD): crystalline
- Crystallinity (Crystallinity by XRPD; listed as citrate): crystalline
- Solubility [1]: 0.456 mg FB/mL
- Solubility ([1]; listed as Citrate): 27.2 mg FB/mL

Compound: CN1CCN(c2ccc3nc(-c4c(N)c5c(F)cccc5[nH]c4=O)[nH]c3c2)CC1 [Mono-malate, 4-Amino-5-fluoro-3-[6-(4-methylpiperazin-1-yl)-1H-benzimidazol-2-yl]-1H-quinolin-2-one]
- hygroscopicity (verdict) [3]: non-hygroscopic
- Forms Compact (Compaction studies): form compacts
- Morphology [4]: needle
- Area % at Time = 0 ([5]; 5° C.): 98.70 Area %
- Area % at Time = 7 days ([5]; 5° C.): 98.69 Area %
- Area % at Time = 0 ([5]; ambient temperature): 98.70 Area %
- Area % at Time = 7 days ([5]; ambient temperature): 98.65 Area %
- Crystallinity (Crystallinity by XRPD): crystalline
- Crystallinity (Crystallinity by XRPD; listed as L-Malate): mixture of crystalline
- Crystallinity (Crystallinity by XRPD; listed as L-malate): mixture of crystalline and amorphous material
- Solubility ([1]; listed as L-Malate): 69 mg FB/mL

Compound: CN1CCN(c2ccc3nc(-c4c(N)c5c(F)cccc5[nH]c4=O)[nH]c3c2)CC1 [Mono-mesylate, 4-Amino-5-fluoro-3-[6-(4-methylpiperazin-1-yl)-1H-benzimidazol-2-yl]-1H-quinolin-2-one]
- Forms Compact (Compaction studies): form compacts
- Tensile strength of compact (Compaction studies; listed as Mesylate-trial 1): 6.9 SC
- Tensile strength of compact (Compaction studies; listed as Mesylate-trial 2): 17.9 SC
- Forms Compact (Compaction studies; listed as Mesylate-trial 1): Yes
- Thickness of compact (Compaction studies; listed as Mesylate-trial 1): 2.77 mm
- Forms Compact (Compaction studies; listed as Mesylate-trial 2): Yes
- Thickness of compact (Compaction studies; listed as Mesylate-trial 2): 2.87 mm
- Area % at Time = 0 ([2]; 30° C./60% Relative humidity): 98.80 Area %
- Area % at Time = 6 weeks ([2]; 30° C./60% Relative humidity): 98.68 Area %
- Area % at Time = 0 ([2]; 40° C./70% Relative humidity): 98.89 Area %
- Area % at Time = 6 weeks ([2]; 40° C./70% Relative humidity): 98.7 Area %
- Morphology [4]: varies from plate to needle
- Morphology ([4]; listed as Mesylate-trial 1): Plate
- Morphology ([4]; listed as Mesylate-trial 2): Needle
- Area % at Time = 0 ([5]; 5° C.): 98.70 Area %
- Area % at Time = 7 days ([5]; 5° C.): 98.76 Area %
- Area % at Time = 0 ([5]; ambient temperature): 98.70 Area %
- Area % at Time = 7 days ([5]; ambient temperature): 98.77 Area %
- Crystallinity (Crystallinity by XRPD): crystalline
- Crystallinity (Crystallinity by XRPD; listed as Mesylate): mixture of crystalline
- Crystallinity (Crystallinity by XRPD; listed as mesylate): crystalline
- Crystallinity (Crystallinity by XRPD; listed as mono-mesylate): mixture of crystalline and amorphous material
- Solubility [1]: 185 mg FB/mL and 180 mg FB/mL
- Solubility ([1]; listed as Mesylate): 22.3 mg FB/mL

Compound: CN1CCN(c2ccc3nc(-c4c(N)c5c(F)cccc5[nH]c4=O)[nH]c3c2)CC1 [Mono-tartrate, 4-Amino-5-fluoro-3-[6-(4-methylpiperazin-1-yl)-1H-benzimidazol-2-yl]-1H-quinolin-2-one]
- Crystallinity (Crystallinity by XRPD): crystalline
- Crystallinity (Crystallinity by XRPD; listed as L-Tartrate): mixture of crystalline
- Crystallinity (Crystallinity by XRPD; listed as L-tartrate): mixture of crystalline and amorphous material
- Solubility ([1]; listed as L-Tartrate): 103.4 mg FB/mL

Compound: CN1CCN(c2ccc3nc(-c4c(N)c5c(F)cccc5[nH]c4=O)[nH]c3c2)CC1 [Nitrate, 4-Amino-5-fluoro-3-[6-(4-methylpiperazin-1-yl)-1H-benzimidazol-2-yl]-1H-quinolin-2-one]
- Solubility [1]: 6.7 mg FB/mL

Compound: CN1CCN(c2ccc3nc(-c4c(N)c5c(F)cccc5[nH]c4=O)[nH]c3c2)CC1 [Phosphate, 4-Amino-5-fluoro-3-[6-(4-methylpiperazin-1-yl)-1H-benzimidazol-2-yl]-1H-quinolin-2-one]
- Area % at Time = 0 ([2]; 30° C./60% Relative humidity): 98.47 Area %
- Area % at Time = 6 weeks ([2]; 30° C./60% Relative humidity): 99.28 Area %
- Area % at Time = 0 ([2]; 40° C./70% Relative humidity): 98.84 Area %
- Area % at Time = 6 weeks ([2]; 40° C./70% Relative humidity): 98.86 Area %
- Crystallinity (Crystallinity by XRPD): mixture of crystalline
- Crystallinity (Crystallinity by XRPD; listed as phosphate): mixture of crystalline and amorphous material
- Solubility [1]: 13.8 mg FB/mL

Compound: CN1CCN(c2ccc3nc(-c4c(N)c5c(F)cccc5[nH]c4=O)[nH]c3c2)CC1 [Sulfate, 4-Amino-5-fluoro-3-[6-(4-methylpiperazin-1-yl)-1H-benzimidazol-2-yl]-1H-quinolin-2-one]
- Area % at Time = 0 [2, 6]: 98.75 Area %
- Area % at Time = 6 weeks [2, 6]: 99.39 Area %
- Area % at Time = 0 [2, 7]: 98.96 Area %
- Area % at Time = 6 weeks [2, 7]: 98.9 Area %
- Crystallinity (Crystallinity by XRPD): mixture of crystalline
- Crystallinity (Crystallinity by XRPD; listed as sulfate): mixture of crystalline and amorphous material
- Solubility [1]: 19.7 mg FB/mL
